{"source": "patent US20020198176A1", "about": "“Treatment of psoriasis with matrix metalloproteinase inhibitors” (priority 2000, published 2002)", "origin": "cited, not measured here", "system": "MMP", "settings": "in vitro; read-out: IC50 (50% reduction of the MMP enzymatic activity in vitro)"}
{"smiles": "O=C(C[C@H](CSc1ccccc1)C(=O)O)c1ccc(-c2ccc(Cl)cc2)cc1", "note": "[BAY 12-9566]", "values": [{"measurement": "IC50", "result": "2.2 to 60", "unit": "µM"}]}
